# Source: patent US11317626B2, “Forchlorfenuron mixtures and uses thereof” (Valent BioSciences LLC, priority 2018, dated 2022)
# How the values were obtained:
# Format in all cases: in vivo
# [1] = tested on: Flame seedless grape vines; assay: Example 3: bud break on spurs of field-grown Flame seedless grape vines; conditions: 41 days post application
# Description: (§1) To determine if the mixtures provided unexpected results, the observed combined efficacy (“OCE”) was divided by the expected combined efficacy (“ECE”) wherein the expected ECE is calculated by the Abbott method: ECE=A+B−(AB/100), • wherein ECE is the expected combined efficacy and in which A and B are the speed of bud break relative to control, the number of buds broken per plant relative to control, shoot length relative to control or shoot weight relative to control given by the single active ingredients. If the ratio between the OCE of the mixture and the ECE of the mixture is greater than 1, then greater than expected interactions are present in the mixture. (Gisi, Synergistic Interaction of Fungicides in Mixtures, The American Phytopathological Society, 86:11, 1273-1279,1996). Results
# To assess the ability of mixtures of the invention to promote and synchronize bud break, these mixtures were applied to field-grown Flame seedless grape vines in Thermal, Calif., and examined for bud break (initiation of growth) and subsequent shoot development. Forchlorfenuron, Dormex (50% HC), 15-0-0 (Erger®) and 17-0-0 fertilizers (CAN17), and mixtures thereof were each applied individually or sequentially (co-applied) to the separate spurs of Flame seedless grape vines. Plants were evaluated for bud break at 41 days after treatment. Results of these evaluations can be seen below in Tables 11 and 12.
# Concord grape vines = assay: Example 2: Concord grape vines greenhouse, forchlorfenuron and 15-0-0 fertilizer (Erger) study; conditions: for Fresh Weight at Harvest: combined shoot fresh weight, 52 days after planting; for 50% BB: days after treatment to 50% bud break; for Average Number of Broken Nodes Per Plant at Harvest: harvest 52 days after planting
# Text: To assess the ability of mixtures of the invention to promote and synchronize bud break these mixtures were applied to Concord grape vines and examined for bud break (initiation of growth) and subsequent shoot development. Specifically, dormant bare-rooted Concord grape vines were planted in pots containing Pro-Mix® BX potting soil (Pro-Mix is a registered trademark of and available from Premier Horticulture Ltd.) and pruned to five nodes on a single shoot of one-year-old wood. Nodes are regions on the shoot where leaves arise from the shoot and buds are present at the axis of the shoot:leaf interface. The bud found at the shoot:leaf interface develops into the vines new shoot growth. Aqueous solutions of forchlorfenuron, HC, 15-0-0 fertilizer, 17-0-0 fertilizer, and mixtures thereof were each applied individually or sequentially or co-applied to the first-year wood of separate Concord grape vines. […] Percent bud break is determined by the number of plants that have at least one bud broken divided by the total number of plants per treatment times 100. […] New shoot growth is the growth arising from the dormant buds not including the woody growth that was planted and gave rise to the new growth.
# as §1
# The experiment from Example 1 was repeated with varying quantities of forchlorfenuron and fertilizers in a greenhouse experiment.
# Malus (apple) rootstocks = assay: Example 4: bud break and shoot growth of Malus (apple) rootstocks; conditions: for Fresh Weight at Harvest: combined new shoot growth; for Fresh Weight at Harvest / Average Number of Broken Buds Per Malus Plant at Harvest / Fresh Weight per Bud at Harvest / Average Number of Broken Nodes Per Centimeter of Shoot at Harvest: harvest at 28 days; for Average Number of Broken Nodes Per Centimeter of Shoot at Harvest: rootstocks pruned to 25 centimeters
# Description: as §1
# To assess the ability of mixtures of the invention to promote and synchronize bud break, these mixtures were applied to field-grown Malus (apple) rootstocks and examined for bud break (initiation of growth) and subsequent shoot development. Forchlorfenuron, Dormex (50% HC), 15-0-0 (Erger®) and 17-0-0 fertilizers (CAN17), and mixtures thereof were each applied individually or sequentially (co-applied) to the shoots of potted Malus rootstocks that were pruned to a height of 25 centimeters. Plants were evaluated for bud break at 28 days after treatment.
smiles,measurement,setting,value
"O=C(Nc1ccccc1)Nc1ccnc(Cl)c1 [CPPU, N-(2-Chloro-4-pyridyl)-N′-phenylurea]",Broken Buds per Spur (OCE),[1]; listed as CPPU 300 ppm,0.00
same,Percentage of Spurs With At Least One Bud Broken (OCE),[1]; listed as CPPU 300 ppm,0%
same,Broken Buds per Spur (OCE),[1]; listed as CPPU 600 ppm,0.03
same,Percentage of Spurs With At Least One Bud Broken (OCE),[1]; listed as CPPU 600 ppm,3%
same,Broken Buds per Spur (OCE),[1]; listed as CPPU 1000 ppm,0.00
same,Percentage of Spurs With At Least One Bud Broken (OCE),[1]; listed as CPPU 1000 ppm,0%
same,Fresh Weight at Harvest,Concord grape vines; listed as CPPU 300 ppm,18.04 grams
same,Fresh Weight at Harvest,Concord grape vines; listed as CPPU 600 ppm,18.54 grams
same,Fresh Weight at Harvest,Concord grape vines; listed as CPPU 1000 ppm,29.13 grams
same,50% BB,Concord grape vines; listed as CPPU 300 ppm,26 days
same,50% BB,Concord grape vines; listed as CPPU 600 ppm,31 days
same,50% BB,Concord grape vines; listed as CPPU 1000 ppm,24 days
same,Average Number of Broken Nodes Per Plant at Harvest,Concord grape vines; listed as CPPU 300 ppm,1.25
same,Average Number of Broken Nodes Per Plant at Harvest,Concord grape vines; listed as CPPU 600 ppm,1.88
same,Average Number of Broken Nodes Per Plant at Harvest,Concord grape vines; listed as CPPU 1000 ppm,2.63
same,Fresh Weight at Harvest,Malus (apple) rootstocks; listed as CPPU 300 ppm,6.98 grams
same,Fresh Weight at Harvest,Malus (apple) rootstocks; listed as CPPU 600 ppm,5.65 grams
same,50% BB,Malus (apple) rootstocks; days after treatment to 50% bud break,12 days
same,Average Number of Broken Buds Per Malus Plant at Harvest,Malus (apple) rootstocks; listed as CPPU 300 ppm,7.00
same,Fresh Weight per Bud at Harvest,Malus (apple) rootstocks; listed as CPPU 300 ppm,0.88 grams
same,Average Number of Broken Buds Per Malus Plant at Harvest,Malus (apple) rootstocks; listed as CPPU 600 ppm,8.25
same,Fresh Weight per Bud at Harvest,Malus (apple) rootstocks; listed as CPPU 600 ppm,0.71 grams
same,Average Number of Broken Nodes Per Centimeter of Shoot at Harvest,Malus (apple) rootstocks; listed as CPPU 300 ppm,0.28
same,Average Number of Broken Nodes Per Centimeter of Shoot at Harvest,Malus (apple) rootstocks; listed as CPPU 600 ppm,0.33
same,50% BB OCE,"Malus (apple) rootstocks; observed efficacy, relative to control",2
